Laboratory results as given in patent US6641797B2, “Perfluoroalkyl-containing complexes with sugar radicals, process for their production and their use” (Schering Aktiengesellschaft, priority 2000, dated 2003).

Assays:
Assay type in all cases: in vivo
[1] = Organ distribution (including tumor and lymph node concentration) after intravenous administration in prostate-cancer-carrying rats; conditions: 225 μmol total Gd/kg i.v.
Excerpt: Organ Distribution (Including Tumor and Lymph Node Concentration) After Intravenous Administration of the Contrast Medium According to the Invention of Example 1 in Prostate-cancer-carrying Rats
After intravenous administration of 225 μmol of total gadolinium/kg of body weight of the title compound of Example 1 in rats (Cop-inbreeding Dunning R3327 MAT-Lu prostate cancer i.m.-implanted 12 days earlier), the metal content in various organs, in tumors and in lymph nodes (pooled as mesenteral and peripheral lymph nodes) was determined 10 minutes, 1 and 24 hours after administration (MW±SD, n=3).

[2] = system: VX2-tumor-carrying rabbits; test: Lymph node visualization (MRT) after intravenous administration in VX2-tumor-carrying rabbits; conditions: 200 μmol of Gd/kg i.v.
Excerpt: Lymph Node Visualization (MRT) After Intravenous Administration of the Contrast Medium According to the Invention of Example 1 in VX2-tumor-carrying Rabbits

[3] = system: rats with acute induced myocardial infarction; test: Infarction visualization (MRT) after intravenous administration in rats with acute induced myocardial infarction; conditions: 100 μmol of Gd/kg i.v.; 24 hours; T1-weighted spin-echo, 1.5 T; confirmed by NBT staining
Protocol: Infarction Visualization (MRT) After Intravenous Administration of the Contrast Medium According to the Invention of Example 1 in Rats
MR images were prepared of the heart (in vivo and post mortem) 24 hours after intravenous administration of 100 μmol of Gd/kg of body weight of the title compound of Example 1 in rats with acute induced myocardial infarction. […] The successful indication of an acute myocardial infarction was confirmed using NBT staining.

[4] = Intestine (emptied), 10 min p.i.
[5] = Muscle (only tissue sample from right lower leg muscle), 10 min p.i.
[6] = Muscle (only tissue sample from right lower leg muscle), 1 h p.i.
[7] = Muscle (only tissue sample from right lower leg muscle), 24 h p.i.
[8] = Remainder of body (also contains the remainder of the blood), 24 h p.i.
[9] = mes. LK (pooled mesenteral lymph nodes), 10 min p.i.
[10] = mes. LK (pooled mesenteral lymph nodes), 1 h p.i.
[11] = mes. LK (pooled mesenteral lymph nodes), 24 h p.i.
[12] = periph. LK (pooled peripheral lymph nodes), 10 min p.i.
[13] = periph. LK (pooled peripheral lymph nodes), 1 h p.i.
[14] = periph. LK (pooled peripheral lymph nodes), 24 h p.i.

Compound: CC(C(=O)NCC(=O)NCCCC[C@H](NC(=O)CO[C@H]1O[C@H](CO)[C@@H](O)[C@H](O)[C@@H]1O)C(=O)N1CCN(S(=O)(=O)C(F)(F)C(F)(F)C(F)(F)C(F)(F)C(F)(F)C(F)(F)C(F)(F)C(F)(F)F)CC1)N1CCN(CC(=O)[O-])CCN(CC(=O)[O-])CCN(CC(=O)[O-])CC1.[Gd+3] (some centres unmarked) [Example 1]
- % Dose per Total Tissue, Balance ([1]; Balance, 24 h p.i.): 94.1 ± 6.41 % Dose
- % Dose per Total Tissue ([1]; Blood (58 ml of blood/kg of body weight), 10 min p.i.): 42.95 ± 2.59 % Dose
- % Dose per Total Tissue ([1]; Blood (58 ml of blood/kg of body weight), 1 h p.i.): 21.47 ± 1.78 % Dose
- % Dose per Total Tissue ([1]; Blood (58 ml of blood/kg of body weight), 24 h p.i.): 1.78 ± 0.03 % Dose
- Gd-Concentration ([1]; Blood, 10 min p.i.): 1665 ± 110 µmol/L
- Gd-Concentration ([1]; Blood, 1 h p.i.): 825 ± 67 µmol/L
- Gd-Concentration ([1]; Blood, 24 h p.i.): 214 ± 9 µmol/L
- % Dose per Total Tissue ([1]; Brain, 10 min p.i.): 0.15 ± 0.03 % Dose
- Gd-Concentration ([1]; Brain, 10 min p.i.): 47 ± 13 µmol/L
- % Dose per Total Tissue ([1]; Brain, 1 h p.i.): 0.08 ± 0.02 % Dose
- Gd-Concentration ([1]; Brain, 1 h p.i.): 26 ± 5 µmol/L
- % Dose per Total Tissue ([1]; Brain, 24 h p.i.): 0.04 ± 0.00 % Dose
- Gd-Concentration ([1]; Brain, 24 h p.i.): 14 ± 2 µmol/L
- % Dose per Total Tissue ([1]; Feces 0-24 h): 21.85 ± 1.46 % Dose
- Gd-Concentration ([1]; Feces 0-24 h): 3128 ± 204 µmol/L
- % Dose per Total Tissue ([1]; Femur, 10 min p.i.): 0.65 ± 0.01 % Dose
- Gd-Concentration ([1]; Femur, 10 min p.i.): 184 ± 4 µmol/L
- % Dose per Total Tissue ([1]; Femur, 1 h p.i.): 0.46 ± 0.03 % Dose
- Gd-Concentration ([1]; Femur, 1 h p.i.): 127 ± 9 µmol/L
- % Dose per Total Tissue ([1]; Femur, 24 h p.i.): 0.31 ± 0.03 % Dose
- Gd-Concentration ([1]; Femur, 24 h p.i.): 87 ± 6 µmol/L
- % Dose per Total Tissue ([1]; Heart, 10 min p.i.): 0.46 ± 0.01 % Dose
- Gd-Concentration ([1]; Heart, 10 min p.i.): 438 ± 29 µmol/L
- % Dose per Total Tissue ([1]; Heart, 1 h p.i.): 0.31 ± 0.03 % Dose
- Gd-Concentration ([1]; Heart, 1 h p.i.): 289 ± 24 µmol/L
- % Dose per Total Tissue ([1]; Heart, 24 h p.i.): 0.14 ± 0.02 % Dose
- Gd-Concentration ([1]; Heart, 24 h p.i.): 131 ± 9 µmol/L
- % Dose per Total Tissue [1, 4]: 2.91 ± 0.18 % Dose
- Gd-Concentration [1, 4]: 342 ± 16 µmol/L
- % Dose per Total Tissue ([1]; Intestine (emptied), 1 h p.i.): 3.41 ± 1.02 % Dose
- Gd-Concentration ([1]; Intestine (emptied), 1 h p.i.): 409 ± 67 µmol/L
- % Dose per Total Tissue ([1]; Intestine (emptied), 24 h p.i.): 2.14 ± 0.14 % Dose
- Gd-Concentration ([1]; Intestine (emptied), 24 h p.i.): 243 ± 22 µmol/L
- % Dose per Total Tissue ([1]; Kidney, 10 min p.i.): 5.02 ± 1.29 % Dose
- Gd-Concentration ([1]; Kidney, 10 min p.i.): 2081 ± 537 µmol/L
- % Dose per Total Tissue ([1]; Kidney, 1 h p.i.): 2.15 ± 0.23 % Dose
- Gd-Concentration ([1]; Kidney, 1 h p.i.): 883 ± 94 µmol/L
- % Dose per Total Tissue ([1]; Kidney, 24 h p.i.): 2.97 ± 0.21 % Dose
- Gd-Concentration ([1]; Kidney, 24 h p.i.): 1178 ± 139 µmol/L
- % Dose per Total Tissue ([1]; Liver, 10 min p.i.): 5.46 ± 0.16 % Dose
- Gd-Concentration ([1]; Liver, 10 min p.i.): 387 ± 26 µmol/L
- % Dose per Total Tissue ([1]; Liver, 1 h p.i.): 5.81 ± 0.16 % Dose
- Gd-Concentration ([1]; Liver, 1 h p.i.): 364 ± 8 µmol/L
- % Dose per Total Tissue ([1]; Liver, 24 h p.i.): 11.65 ± 0.97 % Dose
- Gd-Concentration ([1]; Liver, 24 h p.i.): 746 ± 34 µmol/L
- % Dose per Total Tissue ([1]; Lung, 10 min p.i.): 1.69 ± 0.06 % Dose
- Gd-Concentration ([1]; Lung, 10 min p.i.): 837 ± 32 µmol/L
- % Dose per Total Tissue ([1]; Lung, 1 h p.i.): 1.38 ± 0.08 % Dose
- Gd-Concentration ([1]; Lung, 1 h p.i.): 658 ± 29 µmol/L
- % Dose per Total Tissue ([1]; Lung, 24 h p.i.): 0.73 ± 0.04 % Dose
- Gd-Concentration ([1]; Lung, 24 h p.i.): 370 ± 34 µmol/L
- % Dose per Total Tissue [1, 5]: 10.11 ± 0.03 % Dose
- Gd-Concentration [1, 5]: 99 ± 5 µmol/L
- % Dose per Total Tissue [1, 6]: 0.09 ± 0.03 % Dose
- Gd-Concentration [1, 6]: 78 ± 1 µmol/L
- % Dose per Total Tissue [1, 7]: 0.04 ± 0.00 % Dose
- Gd-Concentration [1, 7]: 36 ± 1 µmol/L
- % Dose per Total Tissue ([1]; Pancreas, 10 min p.i.): 0.26 ± 0.05 % Dose
- Gd-Concentration ([1]; Pancreas, 10 min p.i.): 229 ± 27 µmol/L
- % Dose per Total Tissue ([1]; Pancreas, 1 h p.i.): 0.21 ± 0.05 % Dose
- Gd-Concentration ([1]; Pancreas, 1 h p.i.): 199 ± 30 µmol/L
- % Dose per Total Tissue ([1]; Pancreas, 24 h p.i.): 0.17 ± 0.02 % Dose
- Gd-Concentration ([1]; Pancreas, 24 h p.i.): 130 ± 13 µmol/L
- % Dose per Total Tissue [1, 8]: 30.83 ± 4.05 % Dose
- Gd-Concentration [1, 8]: 225 ± 31 µmol/L
- % Dose per Total Tissue ([1]; Spleen, 10 min p.i.): 0.39 ± 0.03 % Dose
- Gd-Concentration ([1]; Spleen, 10 min p.i.): 548 ± 22 µmol/L
- % Dose per Total Tissue ([1]; Spleen, 1 h p.i.): 0.39 ± 0.02 % Dose
- Gd-Concentration ([1]; Spleen, 1 h p.i.): 487 ± 25 µmol/L
- % Dose per Total Tissue ([1]; Spleen, 24 h p.i.): 0.57 ± 0.03 % Dose
- Gd-Concentration ([1]; Spleen, 24 h p.i.): 645 ± 27 µmol/L
- % Dose per Total Tissue ([1]; Stomach (emptied), 10 min p.i.): 0.57 ± 0.04 % Dose
- Gd-Concentration ([1]; Stomach (emptied), 10 min p.i.): 231 ± 10 µmol/L
- % Dose per Total Tissue ([1]; Stomach (emptied), 1 h p.i.): 0.54 ± 0.12 % Dose
- Gd-Concentration ([1]; Stomach (emptied), 1 h p.i.): 219 ± 46 µmol/L
- % Dose per Total Tissue ([1]; Stomach (emptied), 24 h p.i.): 0.37 ± 0.06 % Dose
- Gd-Concentration ([1]; Stomach (emptied), 24 h p.i.): 138 ± 9 µmol/L
- % Dose per Total Tissue, Sum of Organs ([1]; Sum of Organs (less the remainder of the body), 10 min p.i.): 60.47 ± 3.68 % Dose
- % Dose per Total Tissue, Sum of Organs ([1]; Sum of Organs (less the remainder of the body), 1 h p.i.): 36.33 ± 2.51 % Dose
- % Dose per Total Tissue, Sum of Organs ([1]; Sum of Organs, 24 h p.i.): 52.01 ± 5.22 % Dose
- % Dose per Total Tissue ([1]; Tumor, 10 min p.i.): 0.28 ± 0.10 % Dose
- Gd-Concentration ([1]; Tumor, 10 min p.i.): 185 ± 36 µmol/L
- % Dose per Total Tissue ([1]; Tumor, 1 h p.i.): 0.21 ± 0.02 % Dose
- Gd-Concentration ([1]; Tumor, 1 h p.i.): 184 ± 13 µmol/L
- % Dose per Total Tissue ([1]; Tumor, 24 h p.i.): 0.31 ± 0.01 % Dose
- Gd-Concentration ([1]; Tumor, 24 h p.i.): 199 ± 19 µmol/L
- % Dose per Total Tissue ([1]; Urine 0-24 h): 20.20 ± 4.41 % Dose
- Gd-Concentration ([1]; Urine 0-24 h): 94 ± 20 µmol/L
- % Dose per Total Tissue [1, 9]: 0.11 ± 0.04 % Dose
- Gd-Concentration [1, 9]: 359 ± 72 µmol/L
- % Dose per Total Tissue [1, 10]: 0.24 ± 0.02 % Dose
- Gd-Concentration [1, 10]: 697 ± 42 µmol/L
- % Dose per Total Tissue [1, 11]: 0.32 ± 0.04 % Dose
- Gd-Concentration [1, 11]: 854 ± 135 µmol/L
- % Dose per Total Tissue [1, 12]: 0.10 ± 0.01 % Dose
- Gd-Concentration [1, 12]: 229 ± 15 µmol/L
- % Dose per Total Tissue [1, 13]: 0.20 ± 0.03 % Dose
- Gd-Concentration [1, 13]: 436 ± 44 µmol/L
- % Dose per Total Tissue [1, 14]: 0.18 ± 0.01 % Dose
- Gd-Concentration [1, 14]: 373 ± 24 µmol/L
- MR signal in lymph node metastasis ([2]; 24 hours after administration): considerable signal rise
- MR signal rise in healthy lymph node tissue ([2]; 24 hours after administration): reduced
- MR enhancement of the primary tumor ([2]; 24 hours p.i.): enhancement also propagates out from the center of the tumor
- MR signal in lymph node metastasis ([2]; early after administration, confirmed histologically): without a signal rise
- MR signal in healthy lymph node tissue ([2]; iliac lymph nodes, T1-weighted gradient-echo, 1.5 T, early after administration): strong signal rise
- MR enhancement of the primary tumor ([2]; immediately after administration, especially the periphery): considerable enhancement
- MR signal in the infarction area [3]: strong signal rise
